Experimental data: patent US6893821B2, “Agents that modulate DNA-PK activity and methods of use thereof” (The Regents of the University of California, priority 2000, dated 2005)
“Also recorded” adds a separate entry of the source.

Tests used:
HSP70 = test: RT-PCR for induction of heat shock protein gene transcription in BMDM; format: cell-based, mouse
Protocol: A half million mouse BMDM isolated from BALB/c, IFNα receptor knockout, or IFNγ knockout mice were incubated with ISS-ODN or M-ODN at a final concentration of 10 μg/ml. After 0, 1, 2, 4, 6, and 8 hours, total RNA was prepared and analyzed by RT-PCR (reverse transcription-polymerase chain reaction) for induction of gene transcription of heat shock proteins. The sequences of the primers used is as follows: […]

DNA-PK [1] = test: DNA-PK activity in treated BMDM by immune-complex kinase assay; format: cell-based, mice; conditions: DNA-PKcs-deficient BMDM
Protocol: (§1) Kinase assays and immunoblotting were performed according to Li et al. ((1999) J. Exp. Med. 189:1839-1845). Briefly, BMDM were treated with ISS-ODN (5 μg/ml), M-ODN (5 μg/ml) on ps and po backbones as indicated, LPS-free bacterial DNA or methylated bacterial DNA (5 μg/ml), LPS-free calf thymus DNA (5 μg/ml), LPS (10 μg/ml) or TNFα (10 ng/ml) for the indicated time periods. Cell lysates were prepared and normalized by immunoblotting (IB) with anti-IKKα polyclonal antibodies (Santa Cruz, Santa Cruz Biotech Inc., Calif.), anti-IKKβ polyclonal antbodies (Santa Cruz) or anti-DNA-PKcs monoclonal antibodies (NeoMarker, Calif.). IκB kinase (IKK) complex or DNA-PK complex from 100 μg of the lysates were immunoprecipitated by anti-IKKα or by anti-DNA-PKcs antibodies. The kinase activities (KA) were determined by a kinase assay using the N-terminus of IκBα (for IKK) or the N-terminus of p53 (for DNA-PK) as a substrate as previously described. Wang et al. (1992) Proc. Natl. Acad. Sci. USA 89:4231-4235; Li et al.(1999), supra; and Hammarsten et al. (2000) J. Biol. Chem. 275:1541-1545.
(§2) To further determine whether ISS-ODN, po-ISS-ODN or bacterial DNA activate DNA-PK in cells, we treated BMDM from either wt or DNA-PKcs-deficient mice with ISS-ODN, po-ISS-ODN, bacterial DNA or LPS as a control.

DNA-PK [2] = molecular target: T1, DNA-PK (Mus musculus, UniProt P23475+P27641+P97313); test: as above; format: cell-based, mice; conditions: wt BMDM
T1 construct: endogenous in cells; host or cells: mouse bone marrow-derived macrophages (BMDM)
Protocol: as §1, §2

[3] = tested on: IL-6, IL-12 message in liver; test: RT-PCR for IL-6 and IL-12 message in livers of mice injected i.v. with ODN; format: in vivo; conditions: mice i.v. 200 μl (1 μg/μl in PBS) of ss or ds ODN; 2.5 hours
IKKα = test: In vitro IKK kinase assay: recombinant IKKα incubated with DNA-PK with ISS-ODN; format: biochemical; conditions: IKKα incubated with DNA-PK in the presence of ISS-ODN; not beyond DNA-PK alone
Protocol: (§3) The ODNs (ps-ss) used include an ISS-ODN with an active CpG motif (AACGTT), a methylated ISS-ODN at the ^5C of the CpG dinucleotide (AA*CGTT) and various control ODNs. These ODNs were incubated at concentrations of 0, 0.1, 0.3, or 1 ng/reaction. The po-ISS-ODN was incubated at concentration of 20, 50 or 100 ng/reaction. The po-ds-ISS-ODN was incubated at concentration of 0, 0.5, 1, 2, 5 or 10 ng/reaction. The bacterial or calf thymus DNAs were each incubated at concentration of 1, 2 or 5 ng/reaction. Electrophoretic gel mobility shift assay (EMSA) was performed as previously described. Chu et al. (1999) Immunity 11:721-731; and Li et al., 1999, supra). In vitro IKK kinase assays were performed using purified IKK derived from Sf9 insect cell lysates as was previously described. Zandi et al. (1998) Science 281:1360-1363.
To explore a role of ISS-activated DNA-PK in IKK activation we tested whether affinity-purified DNA-PK can directly activate recombinant IKKα or IKKβ purified from Sf9 cells (Zandi et al., 1998, supra). […] Furthermore, although DNA-PKcs phosphorylated IκBα that activity was considerably lower than that achieved by IKKβ plus DNA-PK. […] Recombinant IKKβ was pre-incubated with DNA-PK in the presence or absence of ISS-ODN followed by immunoprecipitation of IKKβ and IκB kinase activity was measured. […] We next determined whether DNA-PK phosphorylates IKKβ.

IKKβ = test: In vitro IKK kinase assay: recombinant IKKβ incubated with DNA-PK with or without ISS-ODN; format: biochemical
Protocol: as §3
To explore a role of ISS-activated DNA-PK in IKK activation we tested whether affinity-purified DNA-PK can directly activate recombinant IKKα or IKKβ purified from Sf9 cells (Zandi et al., 1998, supra). […] Furthermore, although DNA-PKcs phosphorylated IκBα that activity was considerably lower than that achieved by IKKβ plus DNA-PK. […] To further confirm the activation of IKKβ by DNA-PK, we performed a coupled-kinase assay. Recombinant IKKβ was pre-incubated with DNA-PK in the presence or absence of ISS-ODN followed by immunoprecipitation of IKKβ and IκB kinase activity was measured. […] We next determined whether DNA-PK phosphorylates IKKβ.

- time of peak DNA-PK activity (DNA-PK [2]): 1 h
- DNA-PK activity in cells (DNA-PK [2]; 30-minute incubation): Considerable DNA-PK activity
- IκB kinase activity of IKKα (IKKα): Only a small enhancement
- phosphorylation of catalytically inactive IKKβ (KA) by DNA-PK (IKKβ; incubated with ISS-ODN): phosphorylated
- kinase activity of IKKβ measured by IκB phosphorylation (IKKβ; recombinant IKKβ incubated with DNA-PK in the presence of ISS-ODN): further increased
Substance: 5′-TGACTGTGAACGTTCGAGATGA-3′ [ISS-ODN]
- induction of HSP-70 gene transcription (HSP70; BMDM from IFN type 1 receptor knockout mice): did not result in induction of HSP-70
- induction of inducible HSP-70 gene transcription (HSP70; BMDM, 10 μg/ml, 0-8 hours): induces inducible HSP-70
- DNA-PK activity in cells (DNA-PK [1]): Little or no DNA-PK activity
- IL-6 and IL-12 message in liver (RT-PCR) [3]: readily detected; also recorded: cytokine induction
- activation of IKKβ by DNA-PK, coupled-kinase assay (IKKβ; pre-incubation with DNA-PK with or without ISS-ODN, then immunoprecipitation of IKKβ): only activates IKKβ in the presence of ISS-ODN
